Measurements published in the supplement of paper PMC11208160.

Assay: recombinant UMI read abundance after kanamycin selection (control-corrected) (log10(CPM+1)); higher = more efficient recombination; extreme values may be limits of the assay; sequences stand for … in AGTGCAGAGAAAATCGGCCAGTTTTCTCTGCCTGCAGTCCGCATGCCGTGGGACCCCTTGGGTTCTAACCTGTTGCCTAGATTTATGCAGCGGACTGCCTTTCTCCCAAAGTGATAAACCGG…AGGTTGGTTTCACT; site = the 11-nt donor
In short: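 Values, expressed as log10(CPM+1), derive from recombinant UMI counts converted to CPM, averaged across replicates and scaled by control-derived factors. Plating was with IPTG (0.07 mM) plus kanamycin or unselected, two replicates each. The screen pooled donor and donor-binding-loop pairs for the IS621 bridge recombinase in Escherichia coli.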
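Further: IS621 bridge recombinase in Escherichia coli cells against a fixed T5 target plasmid.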

Going from “GTGGATACATGGACCGGTTTTCCCGGTAATCCGTATTTGCA (site GTGGATACTTG)” to “GTGGCCTCATGGACCGGTTTTCCCGGTAATCCGTATTTGGA (site GTGGCCTCTTC)”, the “recombinant UMI read abundance (log10)” value falls from 1.84 to 1.43.

“GTGGCTGCATGGACCGGTTTTCCCGGTAATCCGTATTTGCC (site GTGGCTGCTGG)” and “GTGGGCGCATGGACCGGTTTTCCCGGTAATCCGTATTTGAC (site GTGGGCGCTGT)” are within 0.2 log units of each other in “recombinant UMI read abundance (log10)” value: 2.44 for the first, 2.43 for the second.

Going from “GTGGGTACATGGACCGGTTTTCCCGGTAATCCGTATTTGTG (site GTGGGTACTCA)” to “GTGGGTTCATGGACCGGTTTTCCCGGTAATCCGTATTTGGC (site GTGGGTTCTGC)”, the “recombinant UMI read abundance (log10)” value rises from 1.46 to 2.19.

Going from “GTGGTCGCATGGACCGGTTTTCCCGGTAATCCGTATTTGCG (site GTAGTCGCTCG)” to “GTGGTCGCATGGACCGGTTTTCCCGGTAATCCGTATTTGCG (site GTCGTCGCTCG)”, the “recombinant UMI read abundance (log10)” value falls from 0.519 to 0.0116.

Compared with “GTGGTCGCATGGACCGGTTTTCCCGGTAATCCGTATTTGCG (site GTGGTCGCTCG)”, “GTGGTCGCATGGACCGGTTTTCCCGGTAATCCGTATTTGCG (site GTTGTCGCTCG)” is lower in “recombinant UMI read abundance (log10)” value: 1.15 for the first, 0.00973 for the second.

Compared with “GTGTAAACATGGACCGGTTTTCCCGGTAATCCGTATTTGCT (site GTGTAAACTAG)”, “GTGTATACATGGACCGGTTTTCCCGGTAATCCGTATTTGCT (site GTGTATACTAG)” is lower in “recombinant UMI read abundance (log10)” value: 2.89 for the first, 2.44 for the second.

Going from “GTGTCCCCATGGACCGGTTTTCCCGGTAATCCGTATTTGGA (site GTGTCCCCTTC)” to “GTGTGCACATGGACCGGTTTTCCCGGTAATCCGTATTTGTA (site GTATGCACTTA)”, the “recombinant UMI read abundance (log10)” value rises from 0.0113 to 1.48.

Compared with “GTGTGCACATGGACCGGTTTTCCCGGTAATCCGTATTTGTA (site GTCTGCACTTA)”, “GTGTGCACATGGACCGGTTTTCCCGGTAATCCGTATTTGTA (site GTGTGCACTTA)” is higher in “recombinant UMI read abundance (log10)” value: 0.0255 for the first, 2.15 for the second.

First: GTGTGCACATGGACCGGTTTTCCCGGTAATCCGTATTTGTA (site GTTTGCACTTA)
Second: GTGTTCTCATGGACCGGTTTTCCCGGTAATCCGTATTTGAA (site GTGTTCTCTTT)
The “recombinant UMI read abundance (log10)” value of the first is lower: 0.00854 for the first, 2.52 for the second.

“GTTAAAACATGGACCGGTTTTCCCGGTAATCCGTATTTGGC (site GTTAAAACTGC)” and “GTTAAAACATGGACCGGTTTTCCCGGTAATCCGTATTTGGC (site GTTACAACTGC)” are the same in “recombinant UMI read abundance (log10)” value: 0 for the first, 0 for the second.

“GTTAAAACATGGACCGGTTTTCCCGGTAATCCGTATTTGGC (site GTTAGAACTGC)” and “GTTAAAACATGGACCGGTTTTCCCGGTAATCCGTATTTGGC (site GTTATAACTGC)” are within 0.2 log units of each other in “recombinant UMI read abundance (log10)” value: 0.02 for the first, 0 for the second.

Compared with “GTTAAATCATGGACCGGTTTTCCCGGTAATCCGTATTTGAA (site GTTAAATCTTT)”, “GTTAAGGCATGGACCGGTTTTCCCGGTAATCCGTATTTGTC (site GTTAAGGCTGA)” is higher in “recombinant UMI read abundance (log10)” value: 1.62 for the first, 2.82 for the second.

“GTTACACCATGGACCGGTTTTCCCGGTAATCCGTATTTGAA (site GTTACACCTTT)” and “GTTAGAACATGGACCGGTTTTCCCGGTAATCCGTATTTGCC (site GTTAGAACTGA)” are within 0.2 log units of each other in “recombinant UMI read abundance (log10)” value: 0.0186 for the first, 0 for the second.

“GTTAGAACATGGACCGGTTTTCCCGGTAATCCGTATTTGCC (site GTTAGAACTGC)” and “GTTAGAACATGGACCGGTTTTCCCGGTAATCCGTATTTGCC (site GTTAGAACTGG)” are the same in “recombinant UMI read abundance (log10)” value: 0 for the first, 0 for the second.

“GTTAGAACATGGACCGGTTTTCCCGGTAATCCGTATTTGCC (site GTTAGAACTGT)” and “GTTAGAACATGGACCGGTTTTCCCGGTAATCCGTATTTGGG (site GTTAGAACTAC)” are the same in “recombinant UMI read abundance (log10)” value: 0 for the first, 0 for the second.

“GTTAGAACATGGACCGGTTTTCCCGGTAATCCGTATTTGGG (site GTTAGAACTCC)” and “GTTAGAACATGGACCGGTTTTCCCGGTAATCCGTATTTGGG (site GTTAGAACTGC)” are within 0.2 log units of each other in “recombinant UMI read abundance (log10)” value: 0.172 for the first, 0 for the second.

Compared with “GTTAGAACATGGACCGGTTTTCCCGGTAATCCGTATTTGGG (site GTTAGAACTTC)”, “GTTAGAACATGGACCGGTTTTCCCGGTAATCCGTATTTGTC (site GTTAGAACTGA)” is higher in “recombinant UMI read abundance (log10)” value: 0.00779 for the first, 1.52 for the second.

“GTTAGAACATGGACCGGTTTTCCCGGTAATCCGTATTTGTC (site GTTAGAACTGC)” and “GTTAGAACATGGACCGGTTTTCCCGGTAATCCGTATTTGTC (site GTTAGAACTGG)” are the same in “recombinant UMI read abundance (log10)” value: 0 for the first, 0 for the second.

Going from “GTTAGAACATGGACCGGTTTTCCCGGTAATCCGTATTTGTC (site GTTAGAACTGT)” to “GTTAGAGCATGGACCGGTTTTCCCGGTAATCCGTATTTGAC (site GTTAGAGCTGT)”, the “recombinant UMI read abundance (log10)” value rises from 0.013 to 2.46.

“GTTAGATCATGGACCGGTTTTCCCGGTAATCCGTATTTGGC (site GTTAGAACTGC)” and “GTTAGATCATGGACCGGTTTTCCCGGTAATCCGTATTTGGC (site GTTAGACCTGC)” are the same in “recombinant UMI read abundance (log10)” value: 0 for the first, 0 for the second.

First: GTTAGATCATGGACCGGTTTTCCCGGTAATCCGTATTTGGC (site GTTAGAGCTGC)
Second: GTTAGATCATGGACCGGTTTTCCCGGTAATCCGTATTTGGC (site GTTAGATCTGC)
The “recombinant UMI read abundance (log10)” value of the first is lower: 0 for the first, 1.92 for the second.

“GTTATAACATGGACCGGTTTTCCCGGTAATCCGTATTTGGC (site GTTAAAACTGC)” and “GTTATAACATGGACCGGTTTTCCCGGTAATCCGTATTTGGC (site GTTACAACTGC)” are the same in “recombinant UMI read abundance (log10)” value: 0 for the first, 0 for the second.

First: GTTATAACATGGACCGGTTTTCCCGGTAATCCGTATTTGGC (site GTTAGAACTGC)
Second: GTTATAACATGGACCGGTTTTCCCGGTAATCCGTATTTGGC (site GTTATAACTGC)
The “recombinant UMI read abundance (log10)” value of the first is lower: 0 for the first, 1.28 for the second.

Compared with “GTTATTGCATGGACCGGTTTTCCCGGTAATCCGTATTTGAT (site GTTATTGCTAT)”, “GTTCCAGCATGGACCGGTTTTCCCGGTAATCCGTATTTGCA (site GTTCAAGCTTG)” is lower in “recombinant UMI read abundance (log10)” value: 1.79 for the first, 0 for the second.

Compared with “GTTCCAGCATGGACCGGTTTTCCCGGTAATCCGTATTTGCA (site GTTCCAGCTTG)”, “GTTCCAGCATGGACCGGTTTTCCCGGTAATCCGTATTTGCA (site GTTCGAGCTTG)” is lower in “recombinant UMI read abundance (log10)” value: 1.64 for the first, 0 for the second.

First: GTTCCAGCATGGACCGGTTTTCCCGGTAATCCGTATTTGCA (site GTTCTAGCTTG)
Second: GTTCCAGCATGGACCGGTTTTCCCGGTAATCCGTATTTGCT (site GTTCCAGCTAG)
The “recombinant UMI read abundance (log10)” value of the first is lower: 0 for the first, 1.06 for the second.

Going from “GTTCGAACATGGACCGGTTTTCCCGGTAATCCGTATTTGCA (site GTTCGAACTTG)” to “GTTCGAACATGGACCGGTTTTCCCGGTAATCCGTATTTGCA (site GTTCGACCTTG)”, the “recombinant UMI read abundance (log10)” value falls from 0.418 to 0.

First: GTTCGAACATGGACCGGTTTTCCCGGTAATCCGTATTTGCA (site GTTCGAGCTTG)
Second: GTTCGAACATGGACCGGTTTTCCCGGTAATCCGTATTTGCA (site GTTCGATCTTG)
The “recombinant UMI read abundance (log10)” value of the first is lower: 0.00306 for the first, 0.448 for the second.

“GTTCGACCATGGACCGGTTTTCCCGGTAATCCGTATTTGCA (site GTTCGAACTTG)” and “GTTCGACCATGGACCGGTTTTCCCGGTAATCCGTATTTGCA (site GTTCGACCTTG)” are the same in “recombinant UMI read abundance (log10)” value: 0 for the first, 0 for the second.

“GTTCGACCATGGACCGGTTTTCCCGGTAATCCGTATTTGCA (site GTTCGAGCTTG)” and “GTTCGACCATGGACCGGTTTTCCCGGTAATCCGTATTTGCA (site GTTCGATCTTG)” are the same in “recombinant UMI read abundance (log10)” value: 0 for the first, 0 for the second.

Compared with “GTTCGCGCATGGACCGGTTTTCCCGGTAATCCGTATTTGCA (site GTTCGAGCTTG)”, “GTTCGCGCATGGACCGGTTTTCCCGGTAATCCGTATTTGCA (site GTTCGCGCTTG)” is higher in “recombinant UMI read abundance (log10)” value: 0.394 for the first, 2.03 for the second.

“GTTCGCGCATGGACCGGTTTTCCCGGTAATCCGTATTTGCA (site GTTCGGGCTTG)” and “GTTCGCGCATGGACCGGTTTTCCCGGTAATCCGTATTTGCA (site GTTCGTGCTTG)” are within 0.2 log units of each other in “recombinant UMI read abundance (log10)” value: 0 for the first, 0.00559 for the second.

Going from “GTTCGGGCATGGACCGGTTTTCCCGGTAATCCGTATTTGCA (site GTTCGAGCTTG)” to “GTTCGGGCATGGACCGGTTTTCCCGGTAATCCGTATTTGCA (site GTTCGCGCTTG)”, the “recombinant UMI read abundance (log10)” value falls from 1.27 to 0.

Going from “GTTCGGGCATGGACCGGTTTTCCCGGTAATCCGTATTTGCA (site GTTCGGGCTTG)” to “GTTCGGGCATGGACCGGTTTTCCCGGTAATCCGTATTTGCA (site GTTCGTGCTTG)”, the “recombinant UMI read abundance (log10)” value falls from 2.23 to 0.33.
